Source: US20260335335A1, “PHARMACEUTICAL FORMULATION COMPRISING A COATED TABLET” (Genentech, Inc., priority 2023, published 2026)
Entries after “also recorded” stand apart in the source; their conditions may differ.

Columns and labels:
mutant PI3Kα = details: role: inhibitor; relative to non-mutant PI3Kα; cited from earlier work
PI3Kα isoform = details: role: inhibitor; relative to PI3 KB, PI3K8 and PI3Ky isoforms; cited from earlier work
[1] = Light sensitivity of GDC-0077 (INAVOLISIB); type: physicochemical

With `C[C@H](Nc1ccc2c(c1)OCCn1cc(N3C(=O)OC[C@H]3C(F)F)nc1-2)C(N)=O` [GDC-0077 (INAVOLISIB), (S)-2-((2-((S)-4-(difluoromethyl)-2-oxooxazolidin-3-yl)-5,6-dihydrobenzo[f]imidazo[1,2-d][1,4]oxazepin-9-yl)amino)propanamide] as the compound, how does the “Selectivity for mutant PI3Kα (in words)” value (mutant PI3Kα) read?
Its value is “selective for mutant PI3Kα expressing tumors relative to non-mutant PI3Kα expressing cells; also recorded: selective activity in modulating mutant forms of the PI3Kα (alpha) isoform”.

And the “Selectivity for PI3Kα isoform (in words)” value (PI3Kα isoform)?
The value was “selectively inhibits the PI3Kα isoform relative to the PI3 KB, PI3K8, and PI3Ky isoforms”.

And the “Light sensitivity (in words)” value [1]?
Its value is “degrades under light stress conditions; also recorded: sensitive to light”.
